Reference: ChEMBL document CHEMBL4002643, “Tubulin-binding dibenz[c,e]oxepines: Part 2. Structural variation and biological evaluation as tumour vasculature disrupting agents” (Bioorg Med Chem, 2017)

Tests used:
[1] = Inhibition of porcine tubulin assembly measured for 30 mins by UV/visible spectrophotometric method; design: species or system Sus scrofa
TK-10 = assay: Cytotoxicity against human TK10 cells assessed as growth inhibition after 48 hrs by SRB assay; assay type: functional; conditions: TK-10, 48 h
U-251 = assay: Cytotoxicity against human U251 cells assessed as growth inhibition after 48 hrs by SRB assay; assay type: functional; conditions: U-251, 48 h
UACC-62 = assay: Cytotoxicity against human UACC62 cells assessed as growth inhibition after 48 hrs by SRB assay; assay type: functional; conditions: UACC-62, 48 h
PC-3 = assay: Cytotoxicity against human PC3 cells assessed as growth inhibition after 48 hrs by SRB assay; assay type: functional; conditions: PC-3, 48 h
SNB-75 = assay: Cytotoxicity against human SNB75 cells assessed as growth inhibition after 48 hrs by SRB assay; assay type: functional; conditions: SNB-75, 48 h
T47D = assay: Cytotoxicity against human T47D cells assessed as growth inhibition after 48 hrs by SRB assay; assay type: functional
HCT-116 = assay: Cytotoxicity against human HCT116 cells assessed as growth inhibition after 48 hrs by SRB assay; assay type: functional; conditions: HCT-116, 48 h
MCF7 = assay: Cytotoxicity against human MCF7 cells assessed as growth inhibition after 48 hrs by SRB assay; assay type: functional; conditions: MCF7, 48 h
NCI-H460 = assay: Cytotoxicity against human NCI-H460 cells assessed as growth inhibition after 48 hrs by SRB assay; assay type: functional; conditions: NCI-H460, 48 h
HCT-15 = assay: Cytotoxicity against human HCT15 cells assessed as growth inhibition after 48 hrs by SRB assay; assay type: functional; conditions: HCT-15, 48 h
HL-60(TB) = assay: Cytotoxicity against human HL-60(TB) cells assessed as growth inhibition after 48 hrs by SRB assay; assay type: functional; conditions: HL-60, 48 h
NCI-H23 = assay: Cytotoxicity against human NCI-H23 cells assessed as growth inhibition after 48 hrs by SRB assay; assay type: functional; conditions: NCI-H23, 48 h
SF-539 = assay: Cytotoxicity against human SF539 cells assessed as growth inhibition after 48 hrs by SRB assay; assay type: functional; conditions: SF-539, 48 h
SK-MEL-2 = assay: Cytotoxicity against human SK-MEL-2 cells assessed as growth inhibition after 48 hrs by SRB assay; assay type: functional; conditions: SK-MEL-2, 48 h
NCI-H522 = assay: Cytotoxicity against human NCI-H522 cells assessed as growth inhibition after 48 hrs by SRB assay; assay type: functional; conditions: NCI-H522, 48 h
OVCAR-8 = assay: Cytotoxicity against human OVCAR8 cells assessed as growth inhibition after 48 hrs by SRB assay; assay type: functional; conditions: OVCAR-8, 48 h
MDA-MB-435 = assay: Cytotoxicity against human MDA-MB-435 cells assessed as growth inhibition after 48 hrs by SRB assay; assay type: functional; conditions: MDA-MB-435, 48 h
DU-145 = assay: Cytotoxicity against human DU145 cells assessed as growth inhibition after 48 hrs by SRB assay; assay type: functional; conditions: DU-145, 48 h
K562 [2] = assay: Cytotoxicity against human K562 cells assessed as growth inhibition after 48 hrs by SRB assay; assay type: functional; conditions: K562, 48 h
HOP-92 = assay: Cytotoxicity against human HOP92 cells assessed as growth inhibition after 48 hrs by SRB assay; assay type: functional; conditions: HOP-92, 48 h
UACC-257 = assay: Cytotoxicity against human UACC257 cells assessed as growth inhibition after 48 hrs by SRB assay; assay type: functional; conditions: UACC-257, 48 h
SF-295 = assay: Cytotoxicity against human SF295 cells assessed as growth inhibition after 48 hrs by SRB assay; assay type: functional; conditions: SF-295, 48 h
NCI/ADR-RES = assay: Cytotoxicity against human NCI-ADR-RES cells assessed as growth inhibition after 48 hrs by SRB assay; assay type: functional
NCI-H322M = assay: Cytotoxicity against human NCI-H322M cells assessed as growth inhibition after 48 hrs by SRB assay; assay type: functional
A498 = assay: Cytotoxicity against human A498 cells assessed as growth inhibition after 48 hrs by SRB assay; assay type: functional; conditions: A498, 48 h
COLO 205 = assay: Cytotoxicity against human COLO205 cells assessed as growth inhibition after 48 hrs by SRB assay; assay type: functional; conditions: COLO 205, 48 h
SF-268 = assay: Cytotoxicity against human SF268 cells assessed as growth inhibition after 48 hrs by SRB assay; assay type: functional; conditions: SF-268, 48 h
SW-620 = assay: Cytotoxicity against human SW620 cells assessed as growth inhibition after 48 hrs by SRB assay; assay type: functional; conditions: SW-620, 48 h
KM12 = assay: Cytotoxicity against human KM12 cells assessed as growth inhibition after 48 hrs by SRB assay; assay type: functional; conditions: KM12, 48 h
M14 = assay: Cytotoxicity against human M14 cells assessed as growth inhibition after 48 hrs by SRB assay; assay type: functional; conditions: M14, 48 h
OVCAR-4 = assay: Cytotoxicity against human OVCAR4 cells assessed as growth inhibition after 48 hrs by SRB assay; assay type: functional; conditions: OVCAR-4, 48 h
BT-549 = assay: Cytotoxicity against human BT549 cells assessed as growth inhibition after 48 hrs by SRB assay; assay type: functional; conditions: BT-549, 48 h
786-0 = assay: Cytotoxicity against human 786-0 cells assessed as growth inhibition after 48 hrs by SRB assay; assay type: functional; conditions: 786-0, 48 h
HOP-62 = assay: Cytotoxicity against human HOP62 cells assessed as growth inhibition after 48 hrs by SRB assay; assay type: functional; conditions: HOP-62, 48 h
MOLT-4 = assay: Cytotoxicity against human MOLT4 cells assessed as growth inhibition after 48 hrs by SRB assay; assay type: functional; conditions: MOLT-4, 48 h
SR = assay: Cytotoxicity against human SR cells assessed as growth inhibition after 48 hrs by SRB assay; assay type: functional
IGROV-1 = assay: Cytotoxicity against human IGROV1 cells assessed as growth inhibition after 48 hrs by SRB assay; assay type: functional; conditions: IGROV-1, 48 h
RPMI-8226 = assay: Cytotoxicity against human RPMI8226 cells assessed as growth inhibition after 48 hrs by SRB assay; assay type: functional; conditions: RPMI-8226, 48 h
UO-31 = assay: Cytotoxicity against human UO31 cells assessed as growth inhibition after 48 hrs by SRB assay; assay type: functional; conditions: UO-31, 48 h
SN12C = assay: Cytotoxicity against human SN12C cells assessed as growth inhibition after 48 hrs by SRB assay; assay type: functional
Malme-3M = assay: Cytotoxicity against human MALME-3M cells assessed as growth inhibition after 48 hrs by SRB assay; assay type: functional
CCRF-CEM = assay: Cytotoxicity against human CCRF-CEM cells assessed as growth inhibition after 48 hrs by SRB assay; assay type: functional
Hs-578T = assay: Cytotoxicity against human Hs 578T cells assessed as growth inhibition after 48 hrs by SRB assay; assay type: functional
K562 [3] = assay: Cytotoxicity against human K562 cells assessed as growth inhibition after 5 days by MTT assay; assay type: functional, cell-based; conditions: K562, 120 h
OVCAR-3 = assay: Cytotoxicity against human OVCAR3 cells assessed as growth inhibition after 48 hrs by SRB assay; assay type: functional; conditions: OVCAR-3, 48 h
MDA-MB-231 = assay: Cytotoxicity against human MDA-MB-231 cells assessed as growth inhibition after 48 hrs by SRB assay; assay type: functional; conditions: MDA-MB-231, 48 h
SK-OV-3 = assay: Cytotoxicity against human SKOV3 cells assessed as growth inhibition after 48 hrs by SRB assay; assay type: functional; conditions: SK-OV-3, 48 h
RXF 393 = assay: Cytotoxicity against human RXF393 cells assessed as growth inhibition after 48 hrs by SRB assay; assay type: functional; conditions: RXF 393, 48 h
SK-MEL-5 = assay: Cytotoxicity against human SK-MEL-5 cells assessed as growth inhibition after 48 hrs by SRB assay; assay type: functional; conditions: SK-MEL-5, 48 h
A549 = assay: Cytotoxicity against human A549 cells assessed as growth inhibition after 48 hrs by SRB assay; assay type: functional; conditions: A549, 48 h
EKVX = assay: Cytotoxicity against human EKVX cells assessed as growth inhibition after 48 hrs by SRB assay; assay type: functional
MDA-MB-468 = assay: Cytotoxicity against human MDA-MB-468 cells assessed as growth inhibition after 48 hrs by SRB assay; assay type: functional; conditions: MDA-MB-468, 48 h
NCI-H226 = assay: Cytotoxicity against human NCI-H226 cells assessed as growth inhibition after 48 hrs by SRB assay; assay type: functional; conditions: NCI-H226, 48 h
HCC 2998 = assay: Cytotoxicity against human HCC2998 cells assessed as growth inhibition after 48 hrs by SRB assay; assay type: functional; conditions: HCC 2998, 48 h
LOX IMVI = assay: Cytotoxicity against human LOXIMVI cells assessed as growth inhibition after 48 hrs by SRB assay; assay type: functional
CAKI-1 = assay: Cytotoxicity against human Caki1 cells assessed as growth inhibition after 48 hrs by SRB assay; assay type: functional; conditions: CAKI-1, 48 h
SNB-19 = assay: Cytotoxicity against human SNB19 cells assessed as growth inhibition after 48 hrs by SRB assay; assay type: functional; conditions: SNB-19, 48 h
[4] = Inhibition of tubulin (unknown origin) assembly preincubated for 30 mins followed by GTP addition by spectrophotometric method; design: species or system Homo sapiens

COc1cc2c(c(OC)c1OC)-c1cc3c(cc1COC2)OCO3 gave an IC50 [1] of over 10000 nM, a GI50 (TK-10) of 5130 nM and a GI50 (U-251) of 480 nM. For the same molecule, the GI50 (UACC-62) was 790 nM, the GI50 (PC-3) was 540 nM and the GI50 (SNB-75) was 460 nM. It also gave a GI50 (T47D) of 25700 nM, a GI50 (HCT-116) of 370 nM and a GI50 (MCF7) of 400 nM. The GI50 (NCI-H460) was 380 nM, the GI50 (HCT-15) was 480 nM and the GI50 (HL-60(TB)) was 390 nM. The GI50 (NCI-H23) was 790 nM, the GI50 (SF-539) was 350 nM and the GI50 (SK-MEL-2) was 560 nM. For the same molecule, the GI50 (NCI-H522) was 390 nM, the GI50 (OVCAR-8) was 520 nM and the GI50 (MDA-MB-435) was 50 nM. For the same molecule, the GI50 (DU-145) was 370 nM, the GI50 (K562 [2]) was 210 nM and the GI50 (HOP-92) was 7080 nM. The GI50 (UACC-257) was 3390 nM, the GI50 (SF-295) was 330 nM and the GI50 (NCI/ADR-RES) was 360 nM. It also gave a GI50 (NCI-H322M) of 2000 nM, a GI50 (A498) of 450 nM and a GI50 (COLO 205) of 340 nM. It also gave a GI50 (SF-268) of 1320 nM, a GI50 (SW-620) of 400 nM and a GI50 (KM12) of 360 nM. For the same molecule, the GI50 (M14) was 230 nM, the GI50 (OVCAR-4) was 2190 nM and the GI50 (BT-549) was 540 nM. For the same molecule, the GI50 (786-0) was 500 nM, the GI50 (HOP-62) was 690 nM and the GI50 (MOLT-4) was 470 nM. The GI50 (SR) was 170 nM, the GI50 (IGROV-1) was 950 nM and the GI50 (RPMI-8226) was 500 nM. It also gave a GI50 (UO-31) of 3980 nM, a GI50 (SN12C) of 1050 nM and a GI50 (Malme-3M) of over 100000 nM. It also gave a GI50 (CCRF-CEM) of 350 nM, a GI50 (Hs-578T) of 430 nM and an IC50 (K562 [3]) of 85000 nM. For the same molecule, the GI50 (OVCAR-3) was 250 nM, the GI50 (MDA-MB-231) was 1200 nM and the GI50 (SK-OV-3) was 470 nM. It also gave a GI50 (RXF 393) of 200 nM, a GI50 (SK-MEL-5) of 210 nM and a GI50 (A549) of 440 nM. It also gave a GI50 (EKVX) of 780 nM, a GI50 (MDA-MB-468) of 170 nM and a GI50 (NCI-H226) of 2750 nM. For the same molecule, the GI50 (HCC 2998) was 490 nM, the GI50 (LOX IMVI) was 870 nM and the GI50 (CAKI-1) was 56200 nM. For the same molecule, the GI50 (SNB-19) was 680 nM.
With COc1cc2c(c(OC)c1OC)-c1ccc(N)cc1COC2 the IC50 [1] was over 10000 nM and the IC50 (K562 [3]) was 10000 nM.
With COc1ccc2c(c1)[C@@H](NC(C)=O)CCc1cc(OC)c(OC)c(OC)c1-2 the IC50 [4] was 700 nM.
In the case of COc1ccc(/C=C\c2cc(OC)c(OC)c(OC)c2)cc1OP(=O)(O)O [FOSBRETABULIN DISODIUM], the IC50 [1] is reported as 900 nM and the IC50 (K562 [3]) is reported as 720 nM.
In the case of COc1ccc2c(c1OS(=O)(=O)C(F)(F)F)COCc1cc(OC)c(OC)c(OC)c1-2, the IC50 [1] is reported as 15000 nM and the IC50 (K562 [3]) is reported as 250 nM.
